Results: US20060069157A1, “Method of ameliorating or abrogating the effects of a neurodegenerative disorder, such as Huntington's disease, by sodium butyrate chemotherapy” (U.S. DEPARTMENT OF VETERANS AFFAIRS, priority 2004, published 2006)
“Also recorded” adds a separate entry of the source.

Experiments:
[1] = test system: R6/2 transgenic mouse model of HD; assay: Neuropathological evaluation (brain weight, gross atrophy, striatal neuron area) at 90 days; assay type: in vivo
Procedure: (§1) Neuropathological Evaluation of Sodium Butyrate Treatment: Beginning at 21 days, R6/2 transgenic mice and wild-type littermate control mice were treated daily with the most optimal dose of sodium butyrate (1.2 g/kg), as determined by survival studies, or PBS intraperitoneal injections. Groups of 10 animals from each treatment paradigm were deeply anesthetized and transcardially perfused with 4% buffered paraformaldehyde at 90 days of age. Forty mice were used for neuropathological analysis, as previously described (Ferrante et al., 2002). Serially cut tissue sections were stained for Nissl substance and immunostained for huntingtin (monoclonal huntingtin antibody, 1:1,000 dilution, Chemicon International Inc.) and for acetylated histone 3 and histone 4 (dilution, 1:1,000, Upstate Biotechnology, Lake Placid, N.Y.), using a previously reported conjugated secondary antibody method in murine brain tissue samples (Ferrante et al., 2002). Specificity for the antisera used in this study was examined in each immunochemical experiment to assist with the interpretation of the results. Preabsorption with excess target proteins, omission of the primary antibodies, and omission of secondary antibodies were performed to determine the amount of background generated from the detection assay.
(§2) Stereology/Quantitation: Serial-cut coronal tissue-sections beginning from the most rostral segment of the neostriatum to the level of the anterior commissure (Inter aural 5.34 mm/Bregma 1.54 mm to Inter aural 3.7 mm/Bregma −0.10 mm), were used for huntingtin aggregate analysis. Unbiased stereological counts of huntingtin-positive aggregates ([…]) were obtained from the neostriatum in 10 mice each from sodium butyrate-treated (1.2 g/kg) and PBS-treated R6/2 mice at 90 days using Neurolucida Stereo Investigator software (Microbrightfield, Colchester, Vt.). The total areas of the rostral neostriatum were defined in serial sections in which counting frames were randomly sampled. The optical dissector method was employed estimating the number of huntingtin-positive aggregates. Striatal neuron areas were analyzed by microscopic videocapture using a Windows-based image analysis system for area measurement (Optimas, Bioscan Incorporated, Edmonds, Wash.). The software automatically identifies and measures profiles. All computer identified cell profiles were manually verified as neurons and exported to Microsoft Excel. Cross-sectional areas were analyzed using Statview.

Drosophila model of HD = Drosophila model of HD (Steffan 2001); cited from earlier work
[2] = test system: 3-NP induced striatal lesions in R6/2 mice; assay: 3-Nitropropionic acid (3-NP) striatal toxicity in R6/2 mice; assay type: in vivo, mouse
Procedure: 3-Nitropropionic Acid Administration: At six weeks, groups of 10 R6/2 mice were treated with daily 1.2 g/kg sodium butyrate or PBS via intraperitoneal injections for two weeks. At the start of week two, 3-nitropropionic acid (3-NP) (Sigma, St. Louis, Mo.) was dissolved in PBS (pH adjusted to 7.4), made fresh daily, and injected intraperitoneally 9 times at 12 hrs intervals (75 mg/kg) in R6/2 mice. The mice were euthanized 8-10 hrs after the last 3-NP injection, deeply anesthetized and transcardially perfused with buffered 4% paraformaldehyde and processed for histopathologic evaluation. Glycerol cryoprotected brains were frozen sectioned at 50 Êm, stained with cresyl violet, and quantitative analysis of lesion volumes was performed in serial sections as described below.
as §2

[3] = test system: mRNA expression in R6/2 striatum and cortex; assay: Microarray gene expression analysis (U74Av2) of striatum and cortex; assay type: in vivo, mouse; design: key to Array, NaBu Txd R6/2 vs R6/2: I = increased; D = decreased; NC = no change
Procedure: Microarray Gene Expression Analysis: Beginning at six weeks of age, four mice were treated for 2 weeks with daily intraperitoneal injections (1.2 g/kg) of sodium butyrate. Mice were euthanized within 60 minutes of the last injection and cortical and striatal brain tissues were dissected separately and snap frozen on dry ice. In parallel, samples from four untreated R6/2 and four wild-type mice were collected in the same manner. One microarray sample was prepared from 10 Êg of total RNA from each tissue and hybridized to one U74Av2 array (Affymetrix). Four independent pair-wise comparisons were performed using MAS 5.0 software (Affymetrix) to evaluate gene expression changes between sodium butyrate-treated R6/2 and untreated R6/2 animals and between untreated R6/2 and untreated wild-type animals. Difference calls were scored, and only mRNAs that received difference calls in the same direction (increased or decreased) in at least 3 of the 4 pair-wise comparisons were included for presentation in the present study.

[4] = test system: acetylated histone 3 and histone 4; assay: Immunocytochemistry of acetylated H3 and H4 in brain sections; assay type: in vivo, mouse; conditions: 1.2 g/kg/d i.p.; R6/2 mice at 90 days
Procedure: as §1

[5] = Angiomotin like 2 mRNA, AI854404, 160131_at, Cortex, treated vs untreated R6/2
[6] = Arginine vasopressin mRNA, M88354, 93381_at, Cortex, treated vs untreated R6/2
[7] = DNAJ/Heat shock protein 40 mRNA, AB028272, 96254_at, Striatum, treated vs untreated R6/2
[8] = Dynamin mRNA, L31397, 103031_g_at, Cortex, treated vs untreated R6/2
[9] = Erythroid differentiation regulator mRNA, AJ007909, 98525_f_at, Striatum, treated vs untreated R6/2
[10] = Hemoglobin, alpha adult chain 1 mRNA, V00714, 94781_at, Striatum + Cortex, treated vs untreated R6/2
[11] = Hemoglobin, beta 1 mRNA, V00722, 103534_at, Cortex, treated vs untreated R6/2
[12] = Hemoglobin, beta adult major chain mRNA, J00413, 101869_s_at, Striatum + Cortex, treated vs untreated R6/2
[13] = Heterogeneous nuclear ribonucleoprotein A1 mRNA, AI183202, 92724_at, Striatum, treated vs untreated R6/2
[14] = MAP kinase phosphatase-1 (MKP-1) mRNA, X61940, 104598_at, Striatum + Cortex, 1.2 g/kg i.p. 2 weeks vs untreated R6/2
[15] = MAP kinase phosphatase-3 (MKP-3) mRNA, AI845584, 93285_at, Cortex, treated vs untreated R6/2
[16] = Microtubule-associated protein tau mRNA, M18775, 102431_at, Cortex, treated vs untreated R6/2
[17] = Protein phosphatase 1B, beta isoform mRNA, D45859, 101836_at, Striatum, treated vs untreated R6/2
[18] = Transthyretin mRNA, D00073, 95350_at, Striatum, treated vs untreated R6/2
[19] = Unknown mRNA, AA711516, 96302_at, Striatum, treated vs untreated R6/2
[20] = Unknown mRNA, AI153421, 96215_f_at, Striatum, treated vs untreated R6/2
[21] = Unknown mRNA, AI451558, 97161_at, Striatum, treated vs untreated R6/2
[22] = Unknown mRNA, AV330064, 161114_i_at, Cortex, treated vs untreated R6/2
[23] = Unknown mRNA, C79248, 94689_at, Striatum + Cortex, treated vs untreated R6/2
[24] = c-fos oncogene mRNA, V00727, 160901_at, Cortex, treated vs untreated R6/2

CCCC(=O)[O-].[Na+] [sodium butyrate]
brain weight loss ([1]; 1.2 g/kg/d i.p. from 21 days, vs wild type littermates (unsupplemented R6/2: 18.9%)): 5.6%
striatal neuron area ([1]; 1.2 g/kg/d i.p., Wt 138.9, PBS-treated R6/2 57.1, p<0.01 vs PBS): 113.5 ± 14.2 _m2
reduction of striatal neuron atrophy ([1]; 1.2 g/kg/d i.p., vs PBS-treated R6/2): one fold
gross brain atrophy, ventricular hypertrophy ([1]; 1.2 g/kg/d i.p., vs PBS-treated/untreated R6/2): reduced gross brain atrophy and ventricular enlargement; also recorded: ameliorated these gross neuropathological sequelae
photoreceptor neuron degeneration and lethality (Drosophila model of HD): slow photoreceptor neuron degeneration and ameliorate lethality
mice with bilateral striatal lesions ([2]; 1.2 g/kg/d i.p. two weeks, 3-NP in second week, 3-NP/PBS: seven of ten): two of ten
neuroprotection from 3-NP striatal damage ([2]; 1.2 g/kg/d i.p. two weeks, 3-NP in second week, vs 3-NP and PBS-treated R6/2): prevented 3-NP striatal-induced damage; also recorded: marked neuroprotection; also recorded: nearly complete protection
reduction in lesion volume ([2]; 1.2 g/kg/d i.p., vs 3-NP/PBS-treated R6/2 mice): 73.3%
% Change calls [3, 5]: 100%
Direction of change [3, 5]: Increase
% Change calls [3, 6]: 75%
Direction of change [3, 6]: Increase
% Change calls [3, 7]: 75%
Direction of change [3, 7]: Increase
% Change calls [3, 8]: 75%
Direction of change [3, 8]: Decrease
% Change calls [3, 9]: 100%
Direction of change [3, 9]: Decrease
% Change calls [3, 10]: 100%
Direction of change [3, 10]: Increase
% Change calls [3, 11]: 75%
Direction of change [3, 11]: Increase
% Change calls [3, 12]: 100%
Direction of change [3, 12]: Increase
% Change calls [3, 13]: 75%
Direction of change [3, 13]: Decrease
% Change calls [3, 14]: 100%
Direction of change [3, 14]: Increase
% Change calls [3, 15]: 75%
Direction of change [3, 15]: Increase
Array, NaBu Txd R6/2 vs R6/2 ([3]; MKP-1 mRNA, Cortex): I
Array, NaBu Txd R6/2 vs R6/2 ([3]; MKP-1 mRNA, Striatum): I
% Change calls [3, 16]: 75%
Direction of change [3, 16]: Decrease
Array, NaBu Txd R6/2 vs R6/2 ([3]; Preproenkephalin mRNA, Striatum): NC
% Change calls [3, 17]: 75%
Direction of change [3, 17]: Increase
% Change calls [3, 18]: 75%
Direction of change [3, 18]: Decrease
% Change calls [3, 19]: 75%
Direction of change [3, 19]: Decrease
% Change calls [3, 20]: 75%
Direction of change [3, 20]: Decrease
% Change calls [3, 21]: 75%
Direction of change [3, 21]: Decrease
% Change calls [3, 22]: 75%
Direction of change [3, 22]: Decrease
% Change calls [3, 23]: 75%
Direction of change [3, 23]: Decrease
% Change calls [3, 24]: 100%
Direction of change [3, 24]: Increase
number of mRNA changes ([3]; treated R6/2 vs untreated R6/2, striatum and cortex, 1.2 g/kg i.p. 2 weeks): 20
Array, NaBu Txd R6/2 vs R6/2 ([3]; α-globin mRNA, Cortex): I
Array, NaBu Txd R6/2 vs R6/2 ([3]; α-globin mRNA, Striatum): I
Array, NaBu Txd R6/2 vs R6/2 ([3]; β-globin mRNA, Cortex): I
Array, NaBu Txd R6/2 vs R6/2 ([3]; β-globin mRNA, Striatum): I
H3 and H4 acetylation immunostaining in brain sections [4]: increased acetylation of histone 4; also recorded: greatly enhanced
